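In this assay, cells in 96-well plates receive the compound at five concentrations for 48 hours. Endpoints are linearly interpolated between the surrounding concentrations. TGI: concentration producing complete growth inhibition.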
How the values were obtained:
Assay in all cases: growth of human tumour cells (NCI), 48 h
UO-31 renal = test system: UO-31 renal
T-47D breast = test system: T-47D breast
SR leukemia = test system: SR leukemia
MDA-MB-435 = test system: MDA-MB-435
SF-295 CNS = test system: SF-295 CNS
MDA-MB-231 breast = test system: MDA-MB-231 breast
HCC-2998 colon = test system: HCC-2998 colon
MDA-N = test system: MDA-N
NCI-H460 lung = test system: NCI-H460 lung
SN12C renal = test system: SN12C renal
COLO 205 colon = test system: COLO 205 colon
A498 renal = test system: A498 renal
SK-OV-3 ovarian = test system: SK-OV-3 ovarian
CAKI-1 renal = test system: CAKI-1 renal
HL-60(TB) leukemia = test system: HL-60(TB) leukemia
CCRF-CEM leukemia = test system: CCRF-CEM leukemia
SK-MEL-2 melanoma = test system: SK-MEL-2 melanoma
ACHN renal = test system: ACHN renal
IGROV1 ovarian = test system: IGROV1 ovarian
TK-10 renal = test system: TK-10 renal
A549 NSCLC = test system: A549 NSCLC
RPMI-8226 leukemia = test system: RPMI-8226 leukemia
K-562 leukemia = test system: K-562 leukemia
OVCAR-5 ovarian = test system: OVCAR-5 ovarian
OVCAR-3 ovarian = test system: OVCAR-3 ovarian
HCT-15 colon = test system: HCT-15 colon
SF-539 CNS = test system: SF-539 CNS
LOX IMVI melanoma = test system: LOX IMVI melanoma
DU-145 prostate = test system: DU-145 prostate
KM20L2 colon = test system: KM20L2 colon
OVCAR-8 ovarian = test system: OVCAR-8 ovarian
SW-620 colon = test system: SW-620 colon
MALME-3M melanoma = test system: MALME-3M melanoma
MCF7 breast = test system: MCF7 breast
PC-3 prostate = test system: PC-3 prostate
HOP-92 NSCLC = test system: HOP-92 NSCLC
DMS 114 small cell lung = test system: DMS 114 small cell lung
HOP-62 NSCLC = test system: HOP-62 NSCLC
RXF 393 renal = test system: RXF 393 renal
NCI-H23 lung = test system: NCI-H23 lung
U251 CNS = test system: U251 CNS
OVCAR-4 ovarian = test system: OVCAR-4 ovarian
UACC-62 melanoma = test system: UACC-62 melanoma
EKVX NSCLC = test system: EKVX NSCLC
HOP-18 NSCLC = test system: HOP-18 NSCLC
DLD-1 colon = test system: DLD-1 colon
SF-268 CNS = test system: SF-268 CNS
SK-MEL-5 melanoma = test system: SK-MEL-5 melanoma
XF 498 CNS = test system: XF 498 CNS
HCT-116 colon = test system: HCT-116 colon
KM12 colon = test system: KM12 colon
SNB-19 CNS = test system: SNB-19 CNS
SK-MEL-28 melanoma = test system: SK-MEL-28 melanoma
786-0 renal = test system: 786-0 renal
HT29 colon = test system: HT29 colon
SNB-75 CNS = test system: SNB-75 CNS
UACC-257 melanoma = test system: UACC-257 melanoma
DMS 273 small cell lung = test system: DMS 273 small cell lung

Structure (SMILES): CCCCCCC(=O)OC[n+]1ccc2c(C)c3[nH]c4ccc(OC)cc4c3c(C)c2c1
- TGI (UO-31 renal): 5.48 µM
- TGI (T-47D breast): 11.5 µM
- TGI (SR leukemia): 3.46 µM
- TGI (MDA-MB-435): 1.79 µM
- TGI (SF-295 CNS): 1.59 µM
- TGI (MDA-MB-231 breast): 2.36 µM
- TGI (HCC-2998 colon): 2.68 µM
- TGI (MDA-N): 1.59 µM
- TGI (NCI-H460 lung): 1.02 µM
- TGI (SN12C renal): 1.91 µM
- TGI (COLO 205 colon): 1.34 µM
- TGI (A498 renal): 2.02 µM
- TGI (SK-OV-3 ovarian): 3.83 µM
- TGI (CAKI-1 renal): 6.69 µM
- TGI (HL-60(TB) leukemia): 1.7 µM
- TGI (CCRF-CEM leukemia): 1.63 µM
- TGI (SK-MEL-2 melanoma): 9.35 µM
- TGI (ACHN renal): 4.88 µM
- TGI (IGROV1 ovarian): 3.83 µM
- TGI (TK-10 renal): 10.4 µM
- TGI (A549 NSCLC): 1.88 µM
- TGI (RPMI-8226 leukemia): 2.1 µM
- TGI (K-562 leukemia): 1.31 µM
- TGI (OVCAR-5 ovarian): 2.75 µM
- TGI (OVCAR-3 ovarian): 4.84 µM
- TGI (HCT-15 colon): 1.24 µM
- TGI (SF-539 CNS): 1.67 µM
- TGI (LOX IMVI melanoma): 1.5 µM
- TGI (DU-145 prostate): 3.59 µM
- TGI (KM20L2 colon): 5.32 µM
- TGI (OVCAR-8 ovarian): 2.12 µM
- TGI (SW-620 colon): 1.78 µM
- TGI (MALME-3M melanoma): 14.2 µM
- TGI (MCF7 breast): 1.75 µM
- TGI (PC-3 prostate): 1.51 µM
- TGI (HOP-92 NSCLC): 3.49 µM

Structure (SMILES): O=C(Nc1ccccc1C(=O)NC(=O)c1ccccc1NC(=O)c1ccccc1)c1ccccc1
- TGI (DMS 114 small cell lung): 9.74 µM
- TGI (SR leukemia): 8.52 µM
- TGI (HOP-62 NSCLC): 36.4 µM
- TGI (SF-295 CNS): 26.6 µM
- TGI (RXF 393 renal): 9.15 µM
- TGI (NCI-H23 lung): 17.1 µM
- TGI (U251 CNS): 18.8 µM
- TGI (OVCAR-4 ovarian): 18 µM
- TGI (UACC-62 melanoma): 5.54 µM
- TGI (EKVX NSCLC): 28.3 µM
- TGI (NCI-H460 lung): 28.1 µM
- TGI (HOP-18 NSCLC): 17.9 µM
- TGI (SN12C renal): 17.2 µM
- TGI (COLO 205 colon): 2.87 µM
- TGI (A498 renal): 33.3 µM
- TGI (CAKI-1 renal): 29.1 µM
- TGI (CCRF-CEM leukemia): 16.4 µM
- TGI (DLD-1 colon): 29.7 µM
- TGI (SF-268 CNS): 22.2 µM
- TGI (SK-MEL-2 melanoma): 3.93 µM
- TGI (SK-MEL-5 melanoma): 12.2 µM
- TGI (ACHN renal): 36.3 µM
- TGI (XF 498 CNS): 4.38 µM
- TGI (IGROV1 ovarian): 5.93 µM
- TGI (TK-10 renal): 25.9 µM
- TGI (A549 NSCLC): 23.1 µM
- TGI (RPMI-8226 leukemia): 8.23 µM
- TGI (HCT-116 colon): 13.5 µM
- TGI (KM12 colon): 3.17 µM
- TGI (K-562 leukemia): 18.3 µM
- TGI (OVCAR-5 ovarian): 13.5 µM
- TGI (SNB-19 CNS): 24.8 µM
- TGI (OVCAR-3 ovarian): 13.4 µM
- TGI (SK-MEL-28 melanoma): 10.6 µM
- TGI (HCT-15 colon): 34.3 µM
- TGI (SF-539 CNS): 18.9 µM
- TGI (786-0 renal): 29.3 µM
- TGI (LOX IMVI melanoma): 13.9 µM
- TGI (KM20L2 colon): 15.6 µM
- TGI (HT29 colon): 12.7 µM
- TGI (OVCAR-8 ovarian): 23 µM
- TGI (SW-620 colon): 18.6 µM
- TGI (MALME-3M melanoma): 12.1 µM
- TGI (SNB-75 CNS): 8.87 µM
- TGI (HOP-92 NSCLC): 6.5 µM
- TGI (UACC-257 melanoma): 4.94 µM
- TGI (DMS 273 small cell lung): 7.78 µM

Source: PubChem BioAssay (NCI)
